{"source": "patent US11414689B2", "about": "“Hydrolysis of steviol glycosides by beta-glucosidase” (Conagen Inc., priority 2017, dated 2022)", "key": {"[1]": {"test_system": "Beta-glucosidase (B-glu1, SEQ: 1)", "assay": "de-glycosylation (hydrolysis) of steviol glycosides by purified recombinant B-glu1, HPLC analysis", "type": "biochemical, Pichia pastoris", "conditions": "recombinant B-glu1 10 μg in 300 μl, 1 mg/ml steviol glycoside, 50 mM potassium phosphate pH 7.2, 30-37° C.", "description": "According to the current disclosure Pichia pastoris genome analysis was completed and several beta-glycosidase candidate genes were identified. Full length DNA fragments of all candidate beta-glucosidase genes were commercially synthesized. Almost all codons of the cDNA were changed to those preferred for E. coli (Genscript, NJ). The synthesized DNA was cloned into a bacterial expression vector pETite N-His SUMO Kan Vector (Lucigen). These same experiments could be performed in Yarrowia lipolytica with sequences optimized for such use.\nEach expression construct was transformed into E. coli BL21 (DE3), which was subsequently grown in LB media containing 50 μg/mL kanamycin at 37° C. until reaching an OD600 of 0.8-1.0. Protein expression was induced by addition of 1 mM isopropyl β-D-1-thiogalactopyranoside (IPTG) and the culture was further grown at 16° C. for 22 hr. Cells were harvested by centrifugation (3,000×g; 10 min; 4° C.). The cell pellets were collected and were either used immediately or stored at −80° C.\nThe cell pellets typically were re-suspended in lysis buffer (50 mM potassium phosphate buffer, pH 7.2, 25 ug/ml lysozyme, 5 ug/ml DNase I, 20 mM imidazole, 500 mM NaCl, 10% glycerol, and 0.4% Triton X-100). The cells were disrupted by sonication under 4° C., and the cell debris was clarified by centrifugation (18,000×g; 30 min). Supernatant was loaded to an equilibrated (equilibration buffer: 50 mM potassium phosphate buffer, pH 7.2, 20 mM imidazole, 500 mM NaCl, 10% glycerol) Ni-NTA (Qiagen) affinity column. After loading of protein sample, the column was washed with equilibration buffer to remove unbound contaminant proteins. The His-tagged beta-glucosidase recombinant polypeptides were eluted by equilibration buffer containing 250 mM imidazole.\nThe purified candidate beta-glucosidase recombinant polypeptides were assayed for de-glycosylation activity by using various steviol glycosides as substrate. Typically, the recombinant polypeptide (10 μg) was tested in a 300 μl in vitro reaction system. The reaction system contains 50 mM potassium phosphate buffer, pH 7.2, 1 mg/ml steviol glycoside. The reaction was performed at 30-37° C. and 50 ul reaction was terminated by adding 200 μL 1-butanol at various time points. The samples were extracted three times with 200 μL 1-butanol. The pooled fraction was dried and dissolved in 100 μL 80% methanol for high-performance liquid chromatography (HPLC) analysis.\nHPLC analysis was then performed using a Dionex UPLC ultimate 3000 system (Sunnyvale, Calif.), including a quaternary pump, a temperature controlled column compartment, an auto sampler and a UV absorbance detector. A Synergi Hydro-RP column (Phenomenex) with guard column was used for the characterization of steviol glycosides in the pooled samples. Acetonitrile in water was used mobile phase in the HPLC analysis. The detection wavelength used in the HPLC analysis was 210 nm."}, "[2]": {"test_system": "disrupted Pichia cells (released B-glu1 enzyme)", "assay": "hydrolysis of steviol glycosides by disrupted Pichia cells (crude extract), HPLC analysis", "type": "biochemical, Pichia pastoris", "conditions": "crude protein 50 ug in 300 ul, 1 g/L substrate, pH 7.2, 30-37° C.; FIG. 8 samples at 24 hours", "protocol": "Pichia cells were suspended in extraction buffer (50 mM potassium phosphate buffer, pH 7.2; 150 mM NaCl). After sonication, the supernatant (crude extract) was collected by centrifuge set at 12,000 g at 4° C. The resulting crude protein (50 ug) was tested in a 300 ul in vitro reaction system. The reaction system contains 50 mM potassium phosphate buffer, pH 7.2, 1 mg/ml steviol glycoside. The reaction was performed at 30-37° C. and 50 ul reaction was terminated by adding 200 μL 1-butanol at various time points. The samples were extracted three times with 200 μL 1-butanol. The pooled fraction was dried and dissolved in 100 μL 80% methanol for high-performance liquid chromatography (HPLC) analysis. HPLC analysis was then performed using a Dionex UPLC ultimate 3000 system (Sunnyvale, Calif.), including a quaternary pump, a temperature controlled column compartment, an auto sampler and a UV absorbance detector. A Synergi Hydro-RP column (Phenomenex) with guard column was used for the characterization of steviol glycosides in the pooled samples. Acetonitrile in water was used mobile phase in the HPLC analysis. The detection wavelength used in the HPLC analysis was 210 nm."}, "[3]": {"conditions": "relative to table sugar; cited from earlier work"}}, "data": [{"smiles": "C=C1C[C@@]23CC[C@H]4[C@@](C)(CCC[C@@]4(C)C(=O)O[C@@H]4O[C@H](CO)[C@@H](O)[C@H](O)[C@H]4O)[C@@H]2CC[C@]1(O[C@@H]1O[C@H](CO)[C@@H](O)[C@H](O)[C@H]1O[C@@H]1O[C@H](CO)[C@@H](O)[C@H](O)[C@H]1O)C3", "note": "[Stevioside, stevioside]", "values": [{"measurement": "Products of hydrolysis of steviol glycoside substrate by B-glu1", "setting": "[1]", "result": "Steviolbioside (SB)"}, {"measurement": "Products of hydrolysis by disrupted Pichia cells", "setting": "[2]", "result": "steviolbioside"}, {"measurement": "sweetness relative to sucrose", "setting": "[3]", "result": "100-150 times sweeter than sucrose"}]}]}
